Experiment in all cases: cells
One test relates to 2008 cells. On the set-up: species or system C13*, A2780, A2780/CP; growth inhibition of human ovarian cancer cell lines after 72 h treatment, cell counts. Conditions: 72 h. As for the experimental part:
(§1) The drug concentrations used in the combinations were based on the IC50s. These are reported in Table S3 of the Supplementary Information. The effects of binary combinations were determined with both drug concentrations lower than their IC50s and were characterized in terms of the synergism quotient. […] With 5 μM 5FU alone, cell growth inhibitions were 24.7, 21.2, 28.3, and 27.1% for 2008, C13*, A2780, and A2780/CP, respectively. […] The bars represent the mean of duplicate cell counts on three separate experiments. A quotient > 1 indicates synergism, =1, additivity <1 antagonism. Error bars represent SEM.

A further test has as its system C13* cells. On the set-up: species or system 2008, A2780, A2780/CP; growth inhibition of human ovarian cancer cell lines after 72 h treatment, cell counts. Conditions: Homo sapiens, C13, 72 h. As for the experimental part: as §1
A further test relates to A2780/CP cells. On the set-up: species or system 2008, C13*; growth inhibition of human ovarian cancer cell lines after 72 h treatment, cell counts. Conditions: A2780C/P, 72 h. As for the experimental part:
as §1

The subject of a further test is A2780 cells. Details: species or system 2008, C13*, A2780/CP; growth inhibition of human ovarian cancer cell lines after 72 h treatment, cell counts. Conditions: Homo sapiens, A2780, 72 h. As for the experimental part:
as §1

Where two headings read alike, the source gives them in different places.

Consider `O=c1[nH]cc(F)c(=O)[nH]1` [5-FU, 5-fluorouracil], for which the IC50 in the test on 2008 cells (read-out: 5-FU (µM) IC50) was found to be 6.3 ± 0.4 µM; in the test with C13* cells (read-out: 5-FU (µM) IC50) it was 12.4 ± 0.8 µM; in the test on A2780/CP cells (read-out: 5-FU (µM) IC50) it was 12.9 ± 1.1 µM; in the test on A2780 cells (read-out: 5-FU (µM) IC50), 9.5 ± 0.8 µM.
For the compound `Cc1nc(=O)c2cc(CN(C)c3ccc(C(=O)N[C@@H](CCC(=O)O)C(=O)O)s3)ccc2[nH]1` [RTX, N-[(5-{methyl[(2-methyl-4-oxo-1,4-dihydroquinazolin-6-yl)methyl]amino}-2-thienyl)carbonyl]-L-glutamic acid], the IC50 in the test with 2008 cells (read-out: RTX (nM) IC50) is 0.0095 ± 0.001 µM; in the test with C13* cells (read-out: RTX (nM) IC50), 0.0262 ± 0.003 µM; in the test on A2780/CP cells (read-out: RTX (nM) IC50), 0.0311 ± 0.0029 µM; in the test on A2780 cells (read-out: RTX (nM) IC50), 0.0086 ± 0.0012 µM.

Broadly, the IC50 is the concentration that gives 50% inhibition.

These data come from article PMC8123127, “Structural Bases for the Synergistic Inhibition of Human Thymidylate Synthase and Ovarian Cancer Cell Growth by Drug Combinations” (Cancers, 2021).
